From patent publication US8362031B2, “Lonidamine analogues and treatment of polycystic kidney disease” (University of Kansas, priority 2004, dated 2013)
“Also recorded” adds a separate entry of the source.

How the values were obtained:
[1] = system: P-ERK; assay: Western blot of treated ADPKD cells; assay type: cell-based, human; details: 50 uM for 48 h, n=2
Description: (§1) Gamendazole (GMZ) was tested to determine if treatment decreases Hsp90 client protein levels in ADPKD cells. Briefly, ADPKD cells were treated with 50 μM GMZ for 24, 48 or 72 hours. Proteins from 20 μg total cell lysate were separated by SDS-PAGE, transferred to a PVDF membrane and probed with antibodies against the Hsp90 client proteins ErbB2 (185 kD), and cdk4 (34 kD). […] GMZ decreased the total levels of these client proteins in ADPKD cells. A decrease in P-ERK correlates with the inhibition of cell proliferation by GMZ. […] The data also provides an indication that other lonidamine derivatives may be useful in therapies for PKD.

[2] = system: total ERK; assay: Western blot of treated ADPKD cells; assay type: cell-based, human; details: 50 uM for 48 h
Description: as §1

[3] = system: E15.5 kidneys from Pkd1+/+, +/−, and −/− mice; assay: Metanephric organ culture, cAMP-driven cyst formation; assay type: cell-based, mouse
Description: To determine whether gamendazole alters the cyst-forming process in response to cAMP, kidneys from Pkd1+/+, +/−, and −/− mice were placed in metanephric culture at E15.5 and treated with 100 uM 8-Br-cAMP with or without gamendazole (100 nM-10 uM) for 4 days.
The length of time that Gamendazole was able to block fluid secretion in embryonic kidneys using a washout technique was studied. Briefly, E15.5 kidneys were treated with cAMP alone or with cAMP plus 5 microM Gamendazole. 24 hrs later, culture medium was removed from the GMZ+cAMP-treated kidneys and was replaced with fresh medium containing cAMP only. […] This was evident by the reduced number and size of the tubule dilations on Day 4.

[4] = system: ADPKD cells; assay: Mitotic index of ADPKD cells; assay type: cell-based, human; details: untreated controls 4.1%
Description: For the […] shown in FIG. 10C, 5×10^3 ADPKD cells were plated in a 4-well chamber slide. After 24 hours, medium was changed to include 5% FBS. Cells were treated with increasing concentrations of GMZ for 16 hours, fixed with 4% paraformaldehyde and permeabilized with 0.2% Triton-X100. Cells were mounted with DAPI-containing mounting medium and observed by fluorescence microscopy. Eight to ten separate fields were examined at 10× magnification and the number of mitotic figures (nuclei) were counted and expressed as a percentage of the total number of nuclei per field. Statistical analysis was done to compare the GMZ-treated cells to untreated cells at each time point using One-way ANOVA and the Tukey HSD test for pair-wise comparisons.

[5] = system: ADPKD cells; assay: Wound-healing scratch assay (cell migration); assay type: cell-based, human
Description: Gamendazole (GMZ) was tested to determine if it inhibits cell migration. Briefly, ADPKD cells were plated on a 12-well cell culture plate in 5% FBS-containing medium and allowed to form a confluent monolayer. The monolayer was wounded using a P-200 pipette tip and the medium changed to include increasing concentrations of gamendazole. Images of three different fields per well were captured at 10× magnification immediately after wounding and at 4, 8 and 24 hours post-wounding. GMZ was tested at 0, 10, 50, and 100 uM. Area of the wound was measured at each time point using NIH Image J program. Percentage of wound closure was calculated by subtracting the area of the wound at any given time point from the 0 h wound area expressed as a percentage of the 0 h wound area. Statistical analysis was done to compare the GMZ-treated cells to untreated cells at each time point using One-way ANOVA and the Tukey HSD test for pair-wise comparisons.

[6] = system: fruitfly; assay: Reproduction of fruitfly; assay type: in vivo, Drosophila (fruitfly)
From the text: Several known Hsp90 inhibitors are listed above. With regard to HSP90, RC-MC-110 likely a novel inhibitor of the N-terminal ATP binding site or a novel site on Hsp90. It should be noted that mutants of Hsp90 in Drosophila (fruitfly) produce sterile males and females. […] Genetics. 1999 March; 151(3):1065-79.

[7] = system: ovarian (ID8), taxol-resistant ovarian (ID8), prostate (LNCaP and PC-3), kidney (293); assay: Growth of cancer cell lines in vitro; assay type: cell-based; details: all cell lines named
Description: When RC-MC-110 is added to a variety of cancer cells: ovarian (ID8), taxol-resistant ovarian (ID8), prostate (LNCaP and PC-3), kidney (293).

[8] = system: Salmonella Typhimurium TA 100; assay: Ames test for mutagenicity (plate assay, colony count); details: 48 hours at 37° C.
[9] = system: rats; assay: Toxicology: organs sectioned and examined after dosing; assay type: in vivo
[10] = 100 nM-10 uM for 4 days with 100 uM 8-Br-cAMP

Question: How did the P-ERK levels [1] turn out when `O=C(O)CCc1nn(Cc2ccc(Cl)cc2Cl)c2cc(C(F)(F)F)ccc12` [GMZ, 3-[1-(2,4-dichlorobenzyl)-6-trifluoromethyl-1H-indazol-3-yl]-propionic acid] was run?
Answer: 71.2 % of controls

Question: What about the “total ERK levels” value [2] of the same compound?
Answer: unchanged

Question: What about the “Toxicity to the kidneys in metanephric culture” value [3, 10] of the same compound?
Answer: did not appear to be toxic to the kidneys

Question: And the cystic dilation [3, 10]?
Answer: significantly inhibited cystic dilation

Question: What about the “cyst formation in Pkd1+/− kidneys” value ([3]; 1-2 uM) of the same compound?
Answer: essentially preventing cyst formation

Question: And the “cyst reduction in Pkd1−/− kidneys” value ([3]; 5-10 uM, data not shown)?
Answer: dramatic cyst reduction

Question: And the “cAMP-mediated cyst formation in heterozygous and null metanephric kidneys” value ([3]; 5 microM)?
Answer: significantly inhibited cAMP-mediated cyst formation

Question: What about the “cystic index, three Pkd1 genotypes” value ([3]; 5 microM) of the same compound?
Answer: dramatic decrease in cystic index

Question: And the “Persistence of inhibition after washout” value ([3]; 5 microM for 24 hrs, then cAMP only, read on Day 4)?
Answer: the inhibitory effects appeared to persist in culture

Question: What about the “Size of kidneys in organ culture” value ([3]; compared to untreated counterparts) of the same compound?
Answer: somewhat reduced in size

Question: And the mitotic index ([4]; 50 μM for 16 h)?
Answer: 2.6%

Question: And the mitotic index ([4]; 100 μM for 16 h, p<0.01)?
Answer: 1.7%

Question: What about the “cell migration (percentage of wound closure)” value ([5]; 10, 50 and 100 uM, 4, 8 and 24 hours post-wounding) of the same compound?
Answer: significant inhibition of cell migration at all concentrations of GMZ tested and at all time points

Question: And the wound closure ([5]; even at low concentration (10 uM))?
Answer: unable to accomplish wound closure

Question: What does the source list for `O=C(O)/C=C/c1nn(Cc2ccc(Cl)cc2Cl)c2cc(C(F)(F)F)ccc12` [RC-MC-110, trans 3-[1-(2,4-dichlorobenzyl)-6-trifluoromethyl-1H-indazol-3-yl]-acrylic acid]?
Answer: Potency on fruitfly reproduction, compared with lonidamine ([6]; in vivo): more potent than lonidamine; Reproduction of fruitfly ([6]; provided to a fruitfly): inhibited reproduction; Growth of cancer cell lines in vitro [7]: inhibited by RC-MC-110 in a dose-dependent manner; Ames test (+)S9 0.1 mg/pl. ([8]; (+)S9 mix, 0.1 mg/pl.): Pass; Ames test (+)S9 1 mg/pl. ([8]; (+)S9 mix, 1 mg/pl.): Pass; Ames test (+)S9 10 mg/pl. ([8]; (+)S9 mix, 10 mg/pl.): Pass; Ames test (−)S9 0.1 mg/pl. ([8]; (−)S9 mix, 0.1 mg/pl.): Pass; Ames test (−)S9 1 mg/pl. ([8]; (−)S9 mix, 1 mg/pl.): Pass; Ames test (−)S9 10 mg/pl. ([8]; (−)S9 mix, 10 mg/pl.): Pass; Toxicology: liver, lung, pancreas, spleen, heart and kidney (histology) ([9]; 6 mg/kg, follow-up experiment, findings per animal): The liver did have isolated, scattered, small necrotic patches, resembling what is often found in subacute hepatic necrosis; Toxicology: liver, lung, pancreas, spleen, heart and kidney (histology) ([9]; 12 mg/kg, follow-up experiment, findings per animal): The liver did have isolated, scattered, small necrotic patches, resembling what is often found in subacute hepatic necrosis; also recorded: The liver contained small, patchy areas of necrosis resembling what is often described for subacute hepatic necrosis; also recorded: The lungs also had multiple, small hemorrhagic areas around the respiratory and terminal bronchioles; Toxicology: liver, lung, pancreas, spleen, heart and kidney (histology) ([9]; 25 mg/kg, two animals examined, findings per animal): liver, lung, pancreas, spleen, heart and kidney all appear within normal limits; Toxicology: liver, lung, pancreas, spleen, heart and kidney (histology) ([9]; 200 mg/kg, two animals examined, findings per animal): liver, lung, pancreas, spleen, heart and kidney all appear within normal limits; Toxicology: liver, lung, pancreas, spleen, heart and kidney (histology) ([9]; oral 1.5 mg/kg, two animals, corn oil): the liver showed a small number of randomly scattered, small necrotic patches, but was otherwise normal; Toxicology: liver, lung, pancreas, spleen, heart and kidney (histology) ([9]; oral 1.5 mg/kg, two animals, corn oil, 1.5 mg/kg): The other animal receiving 1.5 mg/kg appeared normal; Toxicology: liver, lung, pancreas, spleen, heart and kidney (histology) ([9]; oral 6 mg/kg, 3 mg/kg, 1 mg/kg and 0.5 mg/kg, two animals from each dose level, corn oil): liver, lung, pancreas, spleen, heart and kidney all appeared within normal limits
